According to patent publication US12630594B2, “Allergy antigen and epitope for same” (HOYU CO., LTD., priority 2017, dated 2026):

Columns and labels:
[1] = tested on: IgE antibodies from patients; test: Epitope mapping (2): overlapping 10-amino-acid peptide fragments shifted by one amino acid; format: binding, human; conditions: positions numbered within the 15-amino-acid epitope; serum of 5 patients
Description: On the basis of the sequences (SEQ ID NOs: 150-154 for alpha-actinin-3, SEQ ID NO: 155 for EEF1A2 binding protein-like, SEQ ID NOs: 156 and 157 for alpha-1,4-glucan phosphorylase, SEQ ID NOs: 158 and 159 for elongation factor 2, SEQ ID NOs: 160-162 for heat shock cognate 70 kDa protein, SEQ ID NOs: 163-167 for serotransferrin, SEQ ID NOs: 168-171 for myosin binding protein H-like, SEQ ID NOs: 172-174 for desmin (fragment), SEQ ID NOs: 175-178 for capping protein (actin filament) muscle Z-line beta, SEQ ID NOs: 179-185 for myosin heavy chain, fast skeletal muscle-like, SEQ ID NO: 186 for glycogen phosphorylase, muscle form-like, SEQ ID NOs: 187-196 for myosin-binding protein C, fast-type-like, SEQ ID NO: 197 for ATP synthase subunit beta, mitochondrial, SEQ ID NO: 198 for L-lactate dehydrogenase A chain-like, SEQ ID NO: 199 for aldolase, SEQ ID NOs: 200-202 for β-enolase, and SEQ ID NOs: 203 and 204 for glyceraldehyde-3-phosphate dehydrogenase) of the peptides bound to an IgE antibody in serum in a patient-specific manner as described above in (A), a library of overlapping peptide fragments (length: 10 amino acids) was prepared using the sequences of the peptides and sequences in which sequences were added so as to flank each peptide in the amino acid sequences of allergen components (SEQ ID NO: 2 for alpha-actinin-3, SEQ ID NO: 5 for EEF1A2 binding protein-like, SEQ ID NO: 10 for alpha-1,4-glucan phosphorylase, SEQ ID NO: 19 for elongation factor 2, SEQ ID NO: 26 for heat shock cognate 70 kDa protein, SEQ ID NO: 33 for serotransferrin, SEQ ID NO: 43 for myosin binding protein H-like, SEQ ID NO: 56 for desmin (fragment), SEQ ID NO: 61 for capping protein (actin filament) muscle Z-line beta, SEQ ID NO: 70 for myosin heavy chain, fast skeletal muscle-like, SEQ ID NO: 110 for glycogen phosphorylase, muscle form-like, SEQ ID NO: 121 for myosin-binding protein C, fast-type-like, SEQ ID NO: 138 for ATP synthase subunit beta, mitochondrial, SEQ ID NO: 144 for L-lactate dehydrogenase A chain-like, SEQ ID NO: 445 for aldolase, SEQ ID NO: 446 for β-enolase, and SEQ ID NO: 447 for glyceraldehyde-3-phosphate dehydrogenase) comprising the sequences of the peptide. Epitope mapping was carried out using the library.
The peptides to be synthesized were shifted by one amino acid.
The library was prepared by the same procedure as described above in (A), and the presence or absence of binding of an IgE antibody present in the serum of a patient and a non-fish-allergic subject to each peptide fragment was measured by the same technique as described above. Amino acids at positions where the binding activity against IgE antibodies from patients were lost or decreased in the peptides shifted by one amino acid while binding activity against IgE antibodies from non-fish-allergic subjects arose were confirmed as amino acids adversely affecting the specificity of binding to IgE antibodies.
Chemiluminescence intensity in images obtained by measurement was converted into a numeric value in the same manner as in (A) using ImageQuant TL (GE Healthcare). […]

[2] = tested on: IgE antibodies from patients; test: Epitope mapping (3): alanine scanning; parameters: species or system human; conditions: positions numbered within the region important for binding; no influence on IgE binding when substituted by alanine
Method: From the amino acid sequences identified above in (A), a library of peptide fragments in which N-terminal amino acids were substituted one by one by alanine according to a technique called alanine scanning (Non Patent Literature 5) was prepared by the same technique as described above. The presence or absence of binding of an IgE antibody present in the serum of a patient and a non-fish-allergic subject to each peptide fragment was measured by the same technique as described above. Amino acids at positions where the binding activity against IgE antibodies from patients were lost or decreased by the substitution by alanine while binding activity against IgE antibodies from non-fish-allergic subjects arose were confirmed as amino acids important for exertion of original antigenicity, or amino acids influencing exertion of original antigenicity.
Chemiluminescence intensity in images obtained by measurement was converted into a numeric value in the same manner as in (A) using ImageQuant TL (GE Healthcare). When values obtained using the sequences (SEQ ID NOs: 150-204) that were of the peptides confirmed to bind to an IgE antibody in a patient specific manner from the images obtained from results about the serum of 5 patients and served as the basis of overlapping were defined as 100%, it was determined that: a peptide having a value of less than 20% had no binding activity against IgE antibodies; a peptide having a value of 20% or more and less than 50% had binding activity, albeit poor, against IgE antibodies; a peptide having a value of 50% or more and less than 70% had binding activity, albeit somewhat poor, against IgE antibodies; a peptide having a value of 70% or more and less than 90% had equivalent binding activity against IgE antibodies; and a peptide having a value of 90% or more had almost equivalent or good binding activity against IgE antibodies and was thus a peptide had remaining binding activity against IgE antibodies.
By this analysis, common sequences important for exertion of original antigenicity were found in regions important for binding to IgE antibodies from patients, in the sequences serving as the basis of overlapping.

[3] = tested on: IgE antibody present in the serum of a fish-allergic patient; test: Epitope mapping (1): peptide array of overlapping 15-amino-acid peptides; format: binding, human; conditions: average of 5 patients / average of 4 non-fish-allergic subjects at least 1.5, Mann-Whitney U test
Method: Epitope mapping was carried out using a library of overlapping peptides (length: 15 amino acids) corresponding to the amino acid sequences identified as allergy components of fish and the amino acid sequences of known fish allergy antigens aldolase, β-enolase, and glyceraldehyde-3-phosphate dehydrogenase (Non Patent Literature 2-4). Specifically, the library of overlapping peptides was prepared on the basis of the amino acid sequences of SEQ ID NO: 2 for alpha-actinin-3, SEQ ID NO: 5 for EEF1A2 binding protein-like, SEQ ID NO: 10 for alpha-1,4-glucan phosphorylase, SEQ ID NO: 19 for elongation factor 2, SEQ ID NO: 26 for heat shock cognate 70 kDa protein, SEQ ID NO: 33 for serotransferrin, SEQ ID NO: 43 for myosin binding protein H-like, SEQ ID NO: 56 for desmin (fragment), SEQ ID NO: 61 for capping protein (actin filament) muscle Z-line beta, SEQ ID NO: 70 for myosin heavy chain, fast skeletal muscle-like, SEQ ID NO: 110 for glycogen phosphorylase, muscle form-like, SEQ ID NO: 121 for myosin-binding protein C, fast-type-like, SEQ ID NO: 138 for ATP synthase subunit beta, mitochondrial, SEQ ID NO: 144 for L-lactate dehydrogenase A chain-like, SEQ ID NO: 445 for aldolase, SEQ ID NO: 446 for β-enolase, and SEQ ID NO: 447 for glyceraldehyde-3-phosphate dehydrogenase.
The peptides to be synthesized were shifted by 10 amino acids.
For preparation of peptide arrays, the Intavis CelluSpots™ technique was used. Specifically, the peptide arrays were prepared by the following procedure: (1) synthesizing peptides of interest on amino-modified cellulose disks using an automated chemical synthesis apparatus (Intavis MultiPep RS), (2) dissolving the amino-modified cellulose disks to obtain a cellulose-bound peptide solution, and (3) spotting the cellulose-bound peptides onto coated glass slides. The details of each procedure are as described below.
The presence or absence of binding, to each peptide fragment, of an IgE antibody present in the serum of a fish-allergic patient was measured through antigen-antibody reaction using the peptide arrays. The measurement was carried out according to the following procedure. • (1) The peptides were shaken at room temperature for 1 hour in PBST. • (2) The peptide arrays were shaken at overnight at room temperature in 5% serum/PBST. • (3) The peptide arrays were washed with a PBST solution (a PBS buffer containing 0.1% Tween 20 nonionic surfactant) for 5 minutes (×3). • (4) Anti-human IgE antibody-HRP(1:5,000, PBST) was added thereto, and the peptide arrays were shaken at room temperature for 1 hour. • (5) The peptide arrays were washed with a PBST solution for 5 minutes (×3). • (6) Pierce ECL Plus Western Blotting Substrate (produced by Thermo Fisher Scientific) was added thereto, and the peptide arrays were shaken at room temperature for 5 minutes. • (7) The chemiluminescence of the peptides treated as described above in (1) to • (6) was measured using Amersham Imager 600.
Chemiluminescence intensity in images obtained by the measurement described above in (7) was converted into a numeric value using ImageQuant TL (GE Healthcare). The average value of numeric values determined from images obtained from results about the serum of 5 patients was divided by the average value of numeric values determined from images obtained from results about the serum of 4 non-fish-allergic subjects. It was determined that a peptide having a calculated value (average value of the patient group/average value of the non-fish-allergic subject group) of at least 1.5 and a significant difference of […] in the Mann-Whitney U test was a peptide bound to an IgE antibody in a patient-specific manner.

Substance | Positions of amino acids of region important for binding in epitope [1] | Non-binding-influencing amino acid in region important for binding [2] | IgE antibody binding in a patient-specific manner [3]
3 (SCFYHAFAGAEQAET; epitope) [compound 3] | 1-15 | 2 | –
4 (TKLRLSNRPAFMPSE; epitope) [compound 4] | 1-15 | – | –
7 (GGYIQAVLDRNLCEN; epitope) [compound 7] | – | – | bind in a patient-specific manner
9 (AIMDKKSNIRNMSVI; epitope) [compound 9] | – | – | bind in a patient-specific manner
10 (GKSTLTDSLVSKAGI; epitope) [compound 10] | – | – | bind in a patient-specific manner
12 (EAEQYKAADDVQRDK; heat shock cognate 70 kDa protein epitope) [compound 12] | – | 2 | –
13 (KLSDEDKQKILDKCN; epitope) [compound 13] | – | 4 | –
15 (YSGAFQCLKDGAGEV; epitope) [compound 15] | 8-15 | – | –
18 (YYGYNGAFRCLVEDA; epitope) [compound 18] | – | 2 | –
19 (RYVKKVGEKINIVIP; epitope) [compound 19] | – | 3 | –
21 (KEVIDYKPTPFVEHD; epitope) [compound 21] | 2-15 | – | –
25 (DVGRSAEVHSKKTVL; epitope) [compound 25] | 1-7 | – | –
26 (VILIKKAGDGSKKIK; epitope) [compound 26] | – | 3-5 | –
27 (IHVVEVQEKSSGRTA; epitope) [compound 27] | 2-12 | – | –
29 (DNQKYRQLQKELSQV; epitope) [compound 29] | 3-14 | – | –
30 (TVTALDFREGKEFKD; epitope) [compound 30] | – | 2-4 | –
31 (YNSMEQLCINFTNEK; epitope) [compound 31] | 7-15 | 2 | –
32 (LYPPPPPEDKAKKGG; epitope) [compound 32] | 1-10 | – | –
34 (EEDKVNTLTKAKTKL; epitope) [compound 34] | 5-14 | – | –
38 (LKATKKKKKPVVDEE; epitope) [compound 38] | – | 2 | –
40 (TDLRGLLKRLKKMKT; epitope) [compound 40] | 2-8 | – | –
44 (YTFIPDGYALSLSAK; epitope) [compound 44] | – | 2-4 | –
45 (GAPVTGYLMERKKKG; epitope) [compound 45] | 3-7 | – | –
46 (RQKYIRRVGDKINLT; epitope) [compound 46] | 2-13 | – | –
48 (NVAKAHGGYSVFAGV; epitope) [compound 48] | – | – | bind in a patient-specific manner
51 (DGDKSRYLGKGTVKA; epitope) [compound 51] | 6-13 | 7 | –
52 (YRHIADLAGHKDVIL; epitope) [compound 52] | – | 2-4 | –
53 (NLKNVIKAKYGKDAT; epitope) [compound 53] | 6-15 | 3-6 | –
SEQ ID NO: 207: region important for binding, amino acids at positions 1-10 of epitope 1 (SEQ ID NO: 150) (SGERLPKPDK; epitope) | – | 2-6 | –
SEQ ID NO: 210: region important for binding, amino acids at positions 9-14 of epitope 1 (SEQ ID NO: 150) (DKGKMR; epitope) | – | 3-5 | –
